Source: US20050164259A1, “Sequences” (priority 2001, published 2005)

How the values were obtained:
[1] = biological target: T1, pyranosone dehydratase (PD) (Phanerodontia chrysosporium, UniProt P84193); assay: Conversion of AF or glucosone by pyranosone dehydratase, monitored at 226 nm; format: biochemical, Phanerochaete chrysosporium; settings: for OD 226 nm using substance as substrate: 22° C., 5.5 hours
T1 construct: The cell-free extract of Phanerochaete crysosporium was brought up to 55% ammonium sulphate saturation; endogenous in cells; host or cells: Phanerochaete chrysosporium ATCC 32629 and ATCC 24725; Native enzyme purified from cell-free extract by ammonium sulphate fractionation, then the procedure of Gabriel et al. 1993
T1 sequence (P84193 8-900 limits assumed): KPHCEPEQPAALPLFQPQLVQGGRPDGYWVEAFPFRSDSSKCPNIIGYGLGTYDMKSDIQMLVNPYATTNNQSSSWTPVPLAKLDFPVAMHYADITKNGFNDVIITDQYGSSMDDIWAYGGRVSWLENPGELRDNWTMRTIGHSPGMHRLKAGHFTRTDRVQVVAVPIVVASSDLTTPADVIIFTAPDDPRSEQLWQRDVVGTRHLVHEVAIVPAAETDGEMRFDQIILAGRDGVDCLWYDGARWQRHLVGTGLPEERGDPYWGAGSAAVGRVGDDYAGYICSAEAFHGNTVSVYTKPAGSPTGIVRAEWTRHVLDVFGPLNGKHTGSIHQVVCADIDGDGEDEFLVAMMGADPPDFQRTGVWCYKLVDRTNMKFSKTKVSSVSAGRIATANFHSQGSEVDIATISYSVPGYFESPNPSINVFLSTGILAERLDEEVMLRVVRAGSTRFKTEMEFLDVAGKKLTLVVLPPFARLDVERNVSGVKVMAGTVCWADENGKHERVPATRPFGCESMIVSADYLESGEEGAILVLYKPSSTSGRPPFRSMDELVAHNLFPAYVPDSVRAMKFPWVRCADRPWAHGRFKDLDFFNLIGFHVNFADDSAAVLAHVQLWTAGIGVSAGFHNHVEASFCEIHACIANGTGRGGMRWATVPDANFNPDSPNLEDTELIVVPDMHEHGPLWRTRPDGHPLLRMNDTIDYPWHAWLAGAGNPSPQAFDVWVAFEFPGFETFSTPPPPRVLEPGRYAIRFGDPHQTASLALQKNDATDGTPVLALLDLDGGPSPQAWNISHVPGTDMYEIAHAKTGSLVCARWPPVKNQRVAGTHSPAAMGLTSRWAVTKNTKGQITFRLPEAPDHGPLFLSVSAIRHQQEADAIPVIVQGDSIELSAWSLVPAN

Aphanomyces cochlioides [2] = assay: Agar plate inhibition zone test (PDA), microthecin solutions; format: cell-based; settings: judged after 3-4 days of growth
Protocol: (§1) Basic microthecin solution: 24 mg/ml Batch no. Mic20011016
(§2) All solutions were filtered through a 0.22 μm filter for sterilisation.
(§3) A circular plug (diameter 10 mm) of fresh mycelium was placed at the centre on a petri-dish (diameter 9 cm) containing PDA medium. (PDA=Potato dextrose agar Difco no. 213400). Wells with a diameter of 5 mm were cut along the periphery of the agar plate. In each well were placed 50 μl of a test solution. Alternatively, 20 μl of each test solution were placed directly on the agar along the periphery of the plate. Also, 50 μl of each test solution were placed directly on top of the fungal mycelium plug.
(§4) The agar plates were placed at room temperature in daylight, but protected from direct sunlight.
(§5) The reaction (inhibition zones) of the fungi to the test substance was judged as follows: […]

Cercospora beticola = assay: as above; format: cell-based; settings: judged after 3-4 weeks of growth
Protocol: as §1, §2, §3, §4, §5

Pythium ultimum = assay: as above; format: cell-based; settings: judged after 1-2 days of growth
Protocol: as §1, §2, §3, §4, §5

Rhizoctonia solani = assay: as above; format: cell-based; settings: judged after 2-3 days of growth
Protocol: as §1, §2, §3, §4, §5

Aphanomyces cochlioides [3] = assay: Example 4 screening for growth inhibition on agar plates; format: cell-based; settings: very low concentrations; wells on PDA-agar plates, 3-5 days
Protocol: The effect of microthecin on the plant pathogenic fungi Pythium ultimum, Rhizoctonia solani and Aphanomyces cochlioides in vitro was investigated by screening for growth inhibition of the pathogens on agar-plates (FIGS. 6, 7, 8).
(§6) In each case, microthecin was dissolved in water and placed in wells in the periphery. An agar block containing the pathogen was placed in the centre. The pathogens were allowed to grow out on the PDA-agar plates for 3-5 days.

[4] = tested on: Bacillus (B. Pumilus DS96.734, B. megaterium DS98.124); assay: Example 4 similar tests with other microorganisms; format: cell-based
Protocol: as §6

[5] = tested on: Pseudomonads (P. fluorescens DS96.578, P. mendocina DS98.124); assay: Example 4 similar tests with other microorganisms; format: cell-based
Protocol: as §6

sugar beet seeds = assay: Laboratory germination of pelleted sugar beet seeds; format: in vivo; settings: in words
Description: (§7) Seeds were pelleted with standard P1 pelleting mass with (1,2) or without (7,8)Thiram.
(§8) Inner coating: 0.3 gai/U microthecin as a 0.5% solution in water or • 14.7 gai/U Hymexazol. • 60 gai/U Imidacloprid.
(§9) Standard metallic green seed cover film.

Aphanomyces = assay: Field emergence trial FEHCPO34 Aphanomyces, pelleted sugar beet seeds; format: in vivo; settings: pellets containing the substance; in words
Description: Based on these findings, the efficiency of microthecin was further investigated in a field emergence trial. The trial was sown relatively late giving it a higher chance for presence of the pathogen Aphanomyces in the trial field.
as §7, §8, §9
Trial place Bukkehave, D K. (4 reps, 200 seeds/plot)

[6] = final substrate concentration 13.7 μg/ml reaction mixture
[7] = final substrate concentration 27.4 μg/ml reaction mixture
[8] = final substrate concentration 41.1 μg/ml reaction mixture
[9] = final substrate concentration 68.4 μg/ml reaction mixture
[10] = final substrate concentration 95.8 μg/ml reaction mixture
[11] = final substrate concentration 137 μg/ml reaction mixture
[12] = final substrate concentration 205 μg/ml reaction mixture

| Compound | Vmax with AF relative to glucosone ([1]; AF versus natural substrate glucosone) | OD 226 nm using substance as substrate [1, 6] | OD 226 nm using substance as substrate [1, 7] | OD 226 nm using substance as substrate [1, 8] | OD 226 nm using substance as substrate [1, 9] | OD 226 nm using substance as substrate [1, 10] | OD 226 nm using substance as substrate [1, 11] | OD 226 nm using substance as substrate [1, 12] | minimum inhibition concentration (mic) (Aphanomyces cochlioides [2]) | minimum inhibition concentration (mic) (Cercospora beticola) | minimum inhibition concentration (mic) (Pythium ultimum) | minimum inhibition concentration (mic) (Rhizoctonia solani) | growth of Aphanomyces (Aphanomyces cochlioides [3]) | effect on the growth of Bacillus [4] | effect on Pseudomonads [5] | speed of laboratory germination (4d) (sugar beet seeds; inclusion in pellets) | final germination in field (Aphanomyces) | speed of germination in field emergence trials (Aphanomyces) | 4d>15mm germination (sugar beet seeds) |
| --- | --- | --- | --- | --- | --- | --- | --- | --- | --- | --- | --- | --- | --- | --- | --- | --- | --- | --- | --- |
| O=C1CO[C@H](CO)[C@@H](O)[C@@H]1O [AF, 1,5-anhydro-D-fructose] | around 4.7 times | 0.308 | 0.534 | 0.76 | 1.246 | 1.764 | 2.43 | 2.943 |  |  |  |  |  |  |  |  |  |  |  |
| O=C1C=CCOC1(O)CO (stereo not drawn) [microthecin] |  |  |  |  |  |  |  |  | 1200 ppm | 2400 ppm | 480 ppm | 240 ppm | able to reduce the growth | no effect | slightly affected | decreases the speed of laboratory germination | high final germination | comparable with pellets only containing Thiram |  |
| O=CC(=O)[C@@H](O)[C@H](O)[C@H](O)CO [Glucosone, D-arabino-hexos-2-ulose] |  | 0.069 | 0.104 | 0.141 | 0.238 | 0.323 | 0.484 | 0.634 |  |  |  |  |  |  |  |  |  |  |  |
| Cc1cc(O)no1 [Hymexazol] |  |  |  |  |  |  |  |  |  |  |  |  |  |  |  |  |  | germinate relatively slow | low 4d>15mm germination |
